Among the data in patent publication US20230348426A1, “OXOPYRROLIDINE FPR2 AGONISTS” (Bristol-Myers Squibb Company, priority 2020, published 2023) are EC50 values, retold here.

pEC50: −log10 of the molar value.

One experiment deals with human FPR2 (Homo sapiens (Human), UniProt P25090). Briefly: FPR2 cyclic adenosine monophosphate (cAMP) assay. Type of experiment: cell-based. The following applies: CHO cells overexpressing human FPR2; forskolin 5 µM; inhibition of cAMP production; read-out: hFPR2 cAMP2 EC50. An outline of the steps:
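CHO cells overexpressing human FPR2 (2,000/well) incubated 30 min at room temperature with compound (0.020 nM–100 µM, 1% DMSO), 5 µM forskolin and 200 µM IBMX.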
A general note: Changes in cAMP serve as a functional read-out for many G protein-coupled receptors.

Another experiment deals with human FPR1 (Homo sapiens (Human), UniProt P21462). In words: FPR1 cyclic adenosine monophosphate (cAMP) assay. Type of experiment: cell-based. The following applies: CHO cells overexpressing human FPR1; forskolin 10 µM; inhibition of cAMP production; read-out: hFPR1 cAMP EC50. The gist of the method: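 CHO cells overexpressing human FPR1 (4,000 cells/well) stimulated with 10 µM forskolin plus 200 µM IBMX in the presence of compound (0.020 nM–100 µM, 1% DMSO), 30 min at room temperature. Intracellular cAMP measured by HTRF. Inhibition of cAMP production fitted to a 4-parameter logistic equation.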
Sequence of human FPR1 (P21462 whole entry): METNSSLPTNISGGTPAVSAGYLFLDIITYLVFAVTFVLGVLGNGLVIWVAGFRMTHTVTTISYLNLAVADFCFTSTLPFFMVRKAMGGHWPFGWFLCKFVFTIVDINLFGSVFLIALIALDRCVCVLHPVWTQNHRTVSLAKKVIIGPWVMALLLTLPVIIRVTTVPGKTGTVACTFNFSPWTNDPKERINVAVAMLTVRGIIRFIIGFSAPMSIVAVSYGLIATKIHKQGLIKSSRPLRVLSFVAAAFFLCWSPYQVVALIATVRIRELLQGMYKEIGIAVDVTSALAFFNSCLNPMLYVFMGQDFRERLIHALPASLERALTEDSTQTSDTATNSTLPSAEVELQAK

As a reminder, the pEC50 is the EC50 on a negative log10 scale, so that one unit is a factor of ten.

Sequence of human FPR2 (P25090 whole entry): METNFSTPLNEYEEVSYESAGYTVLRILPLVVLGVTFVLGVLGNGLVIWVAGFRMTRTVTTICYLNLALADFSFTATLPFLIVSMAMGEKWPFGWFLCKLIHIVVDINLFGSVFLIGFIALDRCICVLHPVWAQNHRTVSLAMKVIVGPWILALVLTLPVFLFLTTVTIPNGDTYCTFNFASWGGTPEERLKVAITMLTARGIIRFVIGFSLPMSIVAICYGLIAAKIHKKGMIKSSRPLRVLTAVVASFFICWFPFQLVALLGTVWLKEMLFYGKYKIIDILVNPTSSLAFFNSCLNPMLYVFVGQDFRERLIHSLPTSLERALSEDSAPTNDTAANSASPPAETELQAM

For the compound `CCn1cncc(N2C[C@@H](c3c(F)cc(OC)cc3F)[C@H](NC(=O)c3ccc(Cl)cc3)C2=O)c1=O` [Example 378], the results for the pEC50 at human FPR2 and at human FPR1 were 8.34 and 5.42, respectively.

As for `COc1cc(F)c([C@@H]2CN(c3c(C)ccn(CC(=O)N4CCOCC4)c3=O)C(=O)[C@H]2NC(=O)c2ccc(Cl)cc2)c(F)c1` [Example 379], the negative-log EC50 (pEC50) was 8.59 on human FPR2 and 6.49 on human FPR1.

Take `COc1ccc([C@@H]2CN(c3cccn(CC(OC)C(F)(F)F)c3=O)C(=O)[C@H]2NC(=O)c2ccc(Cl)cc2)c(F)c1` (stereo partly drawn) [Example 380]: the pEC50 at human FPR2 is 8.74; at human FPR1 it was 8.52.

Take `COc1cc(F)c([C@@H]2CN(c3c(C)ccn(C(F)F)c3=O)C(=O)[C@H]2NC(=O)c2ccc(OC(F)F)cc2)c(F)c1` [Example 381]: the pEC50 is 8.40 on human FPR2 and 8.00 at human FPR1.

For `COc1ccc([C@@H]2CN(c3c(C)ccn(C(F)F)c3=O)C(=O)[C@H]2NC(=O)c2ccc(OC(F)(F)F)cc2)cc1` [Example 383], the negative-log EC50 (pEC50) on human FPR2 is 8.26; at human FPR1, 8.70.

As to `COc1ccc([C@@H]2CN(c3c(C)ccn(C(F)F)c3=O)C(=O)[C@H]2NC(=O)c2ccc(OC(F)F)cc2)cc1` [Example 384], the negative logarithm of the EC50 (pEC50) was 8.72 on human FPR2 and 9.00 on human FPR1.

Take `COc1ccc([C@@H]2CN(c3c(C)ccn(CC4CC4)c3=O)C(=O)[C@H]2NC(=O)c2ccc(Cl)cc2)cc1` [Example 385]: the results for the pEC50 on human FPR2 and on human FPR1 were 8.15 and 9.00, respectively.

Take `COc1ccc([C@@H]2CN(c3c(C)ccn(CCC(F)(F)F)c3=O)C(=O)[C@H]2NC(=O)c2ccc(Cl)cc2)cc1` [Example 386]: the negative logarithm of the EC50 (pEC50) was 8.62 at human FPR2 and 9.00 at human FPR1.

As to `COc1ccc([C@@H]2CN(c3c(C)ccn(CCC(F)(F)F)c3=O)C(=O)[C@H]2NC(=O)c2ccc(OC(F)F)cc2)cc1` [Example 387], the negative logarithm of the EC50 (pEC50) at human FPR2 was 8.66; at human FPR1, 9.00.

Turning to `COCC(CO)n1ccc(C)c(N2C[C@@H](c3ccc(OC)cc3)[C@H](NC(=O)c3ccc(OC(F)F)cc3)C2=O)c1=O` (stereo partly drawn) [Example 389], the negative-log EC50 (pEC50) on human FPR2 and on human FPR1 was over 8.30 in each case.

On to `CCN1CCC(N2C[C@@H](c3c(F)cc(OC)cc3F)[C@H](NC(=O)c3ccc(OC(F)F)cc3)C2=O)C1=O` (stereo partly drawn) [Example 390], for which the negative-log EC50 (pEC50) is 8.32 on human FPR2 and 7.12 on human FPR1.

Take `COc1ccc([C@@H]2CN(c3cccn(CC(C)O)c3=O)C(=O)[C@H]2NC(=O)c2ccc(Cl)cc2)cc1` (stereo partly drawn) [Example 391]: the pEC50 on human FPR2 is 8.26; on human FPR1, 7.44.

Take `COc1ccc([C@@H]2CN(c3cccn(CC(OC)C(F)(F)F)c3=O)C(=O)[C@H]2NC(=O)c2ccc(Cl)cc2)cc1` (stereo partly drawn) [Example 393]: the pEC50 on human FPR2 was 8.62; on human FPR1 it was 8.70.

As to `COc1ccc([C@@H]2CN(c3c(C)ccn(CCO)c3=O)C(=O)[C@H]2NC(=O)c2ccc(Cl)cc2)c(F)c1` [Example 394], the pEC50 on human FPR2 is 8.72; at human FPR1, 7.96.

As for `COc1ccc([C@@H]2CN(c3cccn(CC(C)OC)c3=O)C(=O)[C@H]2NC(=O)c2ccc(OC(F)(F)F)cc2)c(F)c1` (stereo partly drawn) [Example 395], the pEC50 is 8.62 at human FPR2 and 9.00 on human FPR1.

As to `COc1cc(F)c([C@@H]2CN(c3cccnc3OCCO)C(=O)[C@H]2NC(=O)c2ccc(OC(F)(F)F)cc2)c(F)c1` [Example 396], the pEC50 at human FPR2 was 8.02; on human FPR1, 7.41.

In the case of `COCC(CO)n1cccc(N2C[C@@H](c3ccc(OC)cc3)[C@H](NC(=O)c3ccc(Cl)cc3)C2=O)c1=O` (stereo partly drawn) [Example 397], the pEC50 on human FPR2 is 8.57; at human FPR1, 7.82.

Turning to `COCCn1nccc(N2C[C@@H](c3c(F)cc(OC)cc3F)[C@H](NC(=O)c3ccc(OC(F)F)cc3)C2=O)c1=O` [Example 398], the pEC50 at human FPR2 was 8.14; on human FPR1 it was 7.96.

On to `COc1ccc([C@@H]2CN(c3c(C)ccn(CCC(F)(F)F)c3=O)C(=O)[C@H]2NC(=O)c2ccc(Cl)cc2)c(F)c1` [Example 401], for which the figures for the pEC50 at human FPR2 and on human FPR1 were 8.43 and 8.15, respectively.

For `COc1ccc([C@@H]2CN(c3c(C)ccn(CCC(F)(F)F)c3=O)C(=O)[C@H]2NC(=O)c2ccc(OC(F)F)cc2)c(F)c1` [Example 402], the pEC50 is 8.55 at human FPR2 and 8.52 at human FPR1.

For `COc1ccc([C@@H]2CN(c3cccn(CC(C)OC)c3=O)C(=O)[C@H]2NC(=O)c2ccc(OC(F)(F)F)cc2)cc1` (stereo partly drawn) [Example 405], the negative-log EC50 (pEC50) on human FPR2 is 8.33; at human FPR1, 8.70.

Regarding `COCC(CO)n1cccc(N2C[C@@H](c3ccc(Cl)cc3)[C@H](NC(=O)c3ccc(Cl)cc3)C2=O)c1=O` (stereo partly drawn) [Example 406], the negative-log EC50 (pEC50) at human FPR2 was 8.54; on human FPR1, 8.05.

With `COc1cc(F)c([C@H]2[C@H](NC(=O)c3ccc(OC(F)F)cc3)C(=O)N(c3cccn(CCO)c3=O)[C@@H]2C)c(F)c1` [Example 407], the figures for the pEC50 on human FPR2 and at human FPR1 were 8.11 and 6.19, respectively.

In the case of `COCCOc1ncccc1N1C[C@@H](c2c(F)cc(OC)cc2F)[C@H](NC(=O)c2ccc(OC(F)(F)F)cc2)C1=O` [Example 408], the pEC50 on human FPR2 is 8.46; at human FPR1, 8.05.

For the compound `CC(O)Cn1cccc(N2C[C@@H](c3ccc(Cl)cc3)[C@H](NC(=O)c3ccc(OC(F)F)cc3)C2=O)c1=O` (stereo partly drawn) [Example 409], the pEC50 at human FPR2 was 8.20; on human FPR1 it was 7.44.

Consider `COCCNc1ccnc(N2C[C@@H](c3c(F)cc(OC)cc3F)[C@H](NC(=O)c3ccc(Cl)cc3)C2=O)c1C(F)(F)F` [Example 410], for which the negative-log EC50 (pEC50) is 7.93 on human FPR2 and 5.48 on human FPR1.

For the compound `COCC(CO)n1cccc(N2C[C@@H](c3ccc(OC)cc3)[C@H](NC(=O)c3ccc(Cl)cc3)C2=O)c1=O` (stereo partly drawn) [Example 411], the negative logarithm of the EC50 (pEC50) on human FPR2 is 8.59; at human FPR1, 6.92.

In the case of `COCCOc1ncccc1N1C[C@@H](c2c(F)cc(OC)cc2F)[C@H](NC(=O)c2ccc(OC(F)F)cc2)C1=O` [Example 412], the pEC50 on human FPR2 is 8.12; on human FPR1, 7.03.

As for `COCCOc1ncccc1N1C[C@@H](c2c(F)cc(OC)cc2F)[C@H](NC(=O)c2ccc(Cl)cc2)C1=O` [Example 413], the values for the negative-log EC50 (pEC50) at human FPR2 and at human FPR1 were 9.22 and 6.92, respectively.

Turning to `COCC(CO)n1cccc(N2C[C@@H](c3ccc(Cl)cc3)[C@H](NC(=O)c3ccc(Cl)cc3)C2=O)c1=O` (stereo partly drawn) [Example 414], the negative-log EC50 (pEC50) at human FPR2 was 8.33; at human FPR1, 7.72.

As for `Cc1ccn(CC(F)F)c(=O)c1N1C[C@@H](c2ccc(Cl)cc2)[C@H](NC(=O)c2ccc(OC(F)F)cc2)C1=O` [Example 415], the results for the pEC50 on human FPR2 and at human FPR1 were 8.17 and 8.52, respectively.

As to `COc1ccc([C@@H]2CN(c3cccn(CC(OC)C(F)(F)F)c3=O)C(=O)[C@H]2NC(=O)c2ccc(OC(F)F)cc2)cc1` (stereo partly drawn) [Example 416], the pEC50 was 8.77 at human FPR2 and 9.00 at human FPR1.

For the compound `COc1cc(F)c([C@@H]2CN(c3cccn(CC(OC)C(F)(F)F)c3=O)C(=O)[C@H]2NC(=O)c2ccc(Cl)cc2)c(F)c1` (stereo partly drawn) [Example 417], the pEC50 at human FPR2 was 8.54; at human FPR1, 7.77.

Regarding `COc1ccc([C@@H]2CN(c3cccn(CC(C)OC)c3=O)C(=O)[C@H]2NC(=O)c2ccc(OC(F)F)cc2)c(F)c1` (stereo partly drawn) [Example 418], the pEC50 is 8.57 at human FPR2 and 8.40 on human FPR1.

`COc1cc(F)c([C@@H]2CN(c3nccc(NCCO)c3C(F)(F)F)C(=O)[C@H]2NC(=O)c2ccc(Cl)cc2)c(F)c1` [Example 419]: the pEC50 was 8.32 on human FPR2 and 6.96 at human FPR1.

`COc1cc(F)c([C@@H]2CN(c3nccc(N4CCOCC4)c3C(F)(F)F)C(=O)[C@H]2NC(=O)c2ccc(Cl)cc2)c(F)c1` [Example 420]: the pEC50 was 8.14 at human FPR2 and 7.29 on human FPR1.

Turning to `COc1cc(F)c([C@@H]2CN(c3c(C)ccn(CC(F)F)c3=O)C(=O)[C@H]2NC(=O)c2ccc(Cl)cc2)c(F)c1` [Example 421], the pEC50 at human FPR2 is 8.48; on human FPR1 it was 7.82.

On to `COCCn1ccc(C)c(N2C[C@@H](c3c(F)cc(OC)cc3F)[C@H](NC(=O)c3ccc(Cl)cc3)C2=O)c1=O` [Example 422], for which the pEC50 on human FPR2 was 8.96; on human FPR1, 8.52.

As to `COCCNc1ccnc(N2C[C@@H](c3c(F)cc(OC)cc3F)[C@H](NC(=O)c3ccc(Cl)cc3)C2=O)c1C(F)(F)F` [Example 423], the pEC50 at human FPR2 was 8.33; on human FPR1, 5.96.

Regarding `CC(O)Cn1cccc(N2C[C@@H](c3ccc(Cl)cc3)[C@H](NC(=O)c3ccc(Cl)cc3)C2=O)c1=O` (stereo partly drawn) [Example 424], the negative logarithm of the EC50 (pEC50) at human FPR2 is 8.66; on human FPR1 it was 7.96.

As to `COCC(CO)n1ccc(C)c(N2C[C@@H](c3c(F)cc(OC)cc3F)[C@H](NC(=O)c3ccc(OC(F)F)cc3)C2=O)c1=O` (stereo partly drawn) [Example 426], the pEC50 on human FPR2 is 8.64; on human FPR1, 8.40.

On to `COCC(CO)n1ccc(C)c(N2C[C@@H](c3c(F)cc(OC)cc3F)[C@H](NC(=O)c3ccc(OC(F)(F)F)cc3)C2=O)c1=O` (stereo partly drawn) [Example 427], for which the values for the pEC50 at human FPR2 and at human FPR1 were 8.36 and 8.70, respectively.

As for `COCC(C(=O)N(C)C)n1cccc(N2C[C@@H](c3ccc(OC)cc3F)[C@H](NC(=O)c3ccc(OC(F)F)cc3)C2=O)c1=O` (stereo partly drawn) [Example 428], the figures for the pEC50 on human FPR2 and on human FPR1 were 8.05 and 8.10, respectively.

As to `COc1cc(F)c([C@@H]2CN(c3c(C)ccn(CCC(F)(F)F)c3=O)C(=O)[C@H]2NC(=O)c2ccc(Cl)cc2)c(F)c1` [Example 430], the negative logarithm of the EC50 (pEC50) on human FPR2 is 8.48; at human FPR1 it was 8.30.

On to `COc1ccnc(N2C(=O)[C@@H](NC(=O)c3ccc(Cl)cc3)[C@H](c3c(F)cc(OC)cc3F)[C@@H]2C)c1` [Example 432], for which the pEC50 on human FPR2 was 8.04; at human FPR1, 5.42.
